Key:
[1] = test system: withdrawal seizures in alcohol-dependent mice; experiment: Predicted anti-seizure activity; format: in vivo, mouse; design: key: la = long-acting; The ++ farnesol activity was arbitrary; conditions: duration flag in brackets
[2] = molecular target: T1, neuronal voltage-gated, L-type (Cav1.3) α1D subunit Ca^2+ channel (Rattus norvegicus, UniProt P27732); experiment: KCl-induced Ca^2+ signaling in fura-2 loaded PC12 cells; format: cell-based; conditions: non-NGF PC12 cells, fura-2; FIG. 1 / FIG. 3
T1 construct: KCl-induced intracellular Ca^2+ signaling in non-NGF treated PC12 cells loaded with fura-2; endogenous in cells; host or cells: PC12 cells (non-NGF treated)
Description: According to particular aspects of the present invention, the alcohol group is essential for activity. Additionally, the activity of farnesol metabolites on neuronal voltage-gated L-type Ca^2+ channels was investigated. […] The Ca^2+ channel activity is expressed as % inhibition of KCl-induced intracellular Ca^2+ signaling in non-NGF differentiated PC12 cells loaded with fura-2 (see Materials and Methods under Example 2). The assayed molecules are: FPP—farnesyl pyrophosphate; FOH—all-trans farnesol; FCHO—all-trans farnesal; and FCOOH—all-trans farnesoic acid (prepared by Dr. McDougal).
(§1) To identify compounds with enhanced L-type Ca^2+ channel blocker activity, several compounds were either purchased or synthesized, and then tested for their ability to inhibit: (1) KCl-induced contraction in isolated arteries; (2) KCl-induced Ca^2+ signaling in fura-2 loaded arteries; and (3) KCl-induced Ca^2+ signaling in fura-2 loaded PC12 cells, all using art-recognized methods established in the applicants' laboratories (Roullet, 1993, 1994, 1995, 1997; De Lima, 1999). Arteries express smooth muscle voltage-gated, L-type (Cav1.2 or α1C subunit) Ca^2+ channels, whereas PC12 cells constitutively express the neuronal voltage-gated, L-type (Cav1.3) α1D subunit (Ertel, 2000).
Ca^2+ channel activity is expressed as % inhibition of KCl-induced intracellular Ca^2+ signaling in non-NGF treated PC12 cells loaded with fura-2.

L-type Ca^2+ channel = molecular target: T2, L-type Ca^2+ channel (Mus musculus, UniProt Q01815); experiment: Reversibility of inhibition of L-type Ca^2+ channel mediated arterial contraction after wash-out
T2 construct: KCl-induced contraction in isolated arteries; from tissue; host or cells: mouse mesenteric arteries
Method: (§2) Contractions obtained after 30 min. incubation with the test compounds (left portion of graph), and after a 60-min. wash-out (right portion of graph).
Moreover, farnesylamine is likely to be metabolized through pathways different from those involved in farnesol clearance.

[3] = molecular target: T3, smooth muscle voltage-gated, L-type (Cav1.2 or α1C subunit) Ca^2+ channels (Mus musculus, UniProt Q01815); experiment: KCl-induced contraction in isolated arteries; conditions: FIG. 5 / FIG. 6 (25 μM)
T3 construct: KCl-induced contraction in isolated arteries; from tissue; host or cells: mouse mesenteric arteries
Method: as §2, §1

microsomal FolDH = experiment: Recognition by microsomal FolDH; format: in vitro ADME
ADH = experiment: Metabolism / substrate recognition by ADH; format: in vitro ADME
Storage stability = format: physicochemical; conditions: −20° C., pure form or ethanol solutions (typically 25 mM)
Method: According to the present invention, the synthesis of geranylresorcinol (GR) (4) is based on the condensation of geranyl bromide (1) and 3-hydroxyphenyl benzoate (2), followed by alkaline cleavage of the formed ester (3). The method generates pure GR with an overall yield of 40%. The compound is stable when stored at −20° C. either in its pure form or in ethanol solutions (typically prepared at 25 mM). Long-term storage may be associated with some darkening of the product, as typically observed with electron-rich phenols, but it is not associated with significant loss of activity (on arteries).

T3 sequence (Q01815 whole entry): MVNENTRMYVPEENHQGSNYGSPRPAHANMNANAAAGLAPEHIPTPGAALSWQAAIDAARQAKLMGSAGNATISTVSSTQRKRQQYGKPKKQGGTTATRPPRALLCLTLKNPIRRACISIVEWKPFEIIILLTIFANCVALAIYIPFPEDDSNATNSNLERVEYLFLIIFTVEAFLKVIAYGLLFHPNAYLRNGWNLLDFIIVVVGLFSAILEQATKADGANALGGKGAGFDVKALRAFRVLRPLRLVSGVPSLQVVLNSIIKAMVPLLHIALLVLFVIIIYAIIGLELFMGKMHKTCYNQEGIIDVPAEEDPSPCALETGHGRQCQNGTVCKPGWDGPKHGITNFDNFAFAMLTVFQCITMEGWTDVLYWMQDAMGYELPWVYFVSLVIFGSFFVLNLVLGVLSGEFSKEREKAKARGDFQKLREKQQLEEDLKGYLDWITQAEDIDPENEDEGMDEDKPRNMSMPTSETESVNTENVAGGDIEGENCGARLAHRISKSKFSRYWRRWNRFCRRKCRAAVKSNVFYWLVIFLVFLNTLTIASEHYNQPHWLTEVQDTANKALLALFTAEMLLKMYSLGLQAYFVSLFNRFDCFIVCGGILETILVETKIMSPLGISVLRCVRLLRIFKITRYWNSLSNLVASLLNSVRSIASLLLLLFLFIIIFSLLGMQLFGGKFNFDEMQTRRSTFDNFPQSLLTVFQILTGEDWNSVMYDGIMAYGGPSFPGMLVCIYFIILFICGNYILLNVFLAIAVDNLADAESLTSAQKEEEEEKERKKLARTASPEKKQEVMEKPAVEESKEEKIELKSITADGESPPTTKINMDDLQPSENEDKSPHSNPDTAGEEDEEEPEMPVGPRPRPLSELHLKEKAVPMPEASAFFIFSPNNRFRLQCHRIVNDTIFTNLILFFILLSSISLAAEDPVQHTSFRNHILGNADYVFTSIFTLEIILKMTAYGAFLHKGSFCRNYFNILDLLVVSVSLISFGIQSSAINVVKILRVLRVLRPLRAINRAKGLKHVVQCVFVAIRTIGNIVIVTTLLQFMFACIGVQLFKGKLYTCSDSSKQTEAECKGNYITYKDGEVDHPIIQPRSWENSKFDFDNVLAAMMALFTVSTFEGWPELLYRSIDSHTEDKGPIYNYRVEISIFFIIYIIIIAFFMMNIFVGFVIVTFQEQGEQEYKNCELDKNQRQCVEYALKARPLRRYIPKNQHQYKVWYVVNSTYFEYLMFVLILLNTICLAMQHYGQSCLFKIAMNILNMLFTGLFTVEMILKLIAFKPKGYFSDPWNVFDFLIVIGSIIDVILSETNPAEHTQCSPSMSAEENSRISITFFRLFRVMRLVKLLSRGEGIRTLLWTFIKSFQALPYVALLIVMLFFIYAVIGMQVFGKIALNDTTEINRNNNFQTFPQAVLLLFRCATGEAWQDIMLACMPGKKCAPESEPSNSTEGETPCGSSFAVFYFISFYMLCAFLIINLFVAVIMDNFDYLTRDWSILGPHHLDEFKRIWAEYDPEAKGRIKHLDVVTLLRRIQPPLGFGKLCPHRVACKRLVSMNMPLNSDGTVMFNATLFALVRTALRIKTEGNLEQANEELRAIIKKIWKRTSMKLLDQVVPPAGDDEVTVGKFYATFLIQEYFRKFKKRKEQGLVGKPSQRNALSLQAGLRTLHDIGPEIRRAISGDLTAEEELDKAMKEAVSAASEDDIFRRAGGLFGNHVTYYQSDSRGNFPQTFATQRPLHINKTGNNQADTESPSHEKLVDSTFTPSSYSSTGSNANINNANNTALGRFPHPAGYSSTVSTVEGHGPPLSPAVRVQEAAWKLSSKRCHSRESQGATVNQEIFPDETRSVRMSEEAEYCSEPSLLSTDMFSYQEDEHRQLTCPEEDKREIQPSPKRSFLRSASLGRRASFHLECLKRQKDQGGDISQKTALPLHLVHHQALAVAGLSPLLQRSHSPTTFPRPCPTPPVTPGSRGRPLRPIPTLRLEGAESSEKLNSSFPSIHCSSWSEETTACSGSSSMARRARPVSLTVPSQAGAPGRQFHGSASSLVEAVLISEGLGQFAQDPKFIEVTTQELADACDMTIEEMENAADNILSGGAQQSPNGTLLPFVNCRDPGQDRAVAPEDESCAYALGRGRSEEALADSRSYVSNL
T3 sequence (P54285 whole entry partner): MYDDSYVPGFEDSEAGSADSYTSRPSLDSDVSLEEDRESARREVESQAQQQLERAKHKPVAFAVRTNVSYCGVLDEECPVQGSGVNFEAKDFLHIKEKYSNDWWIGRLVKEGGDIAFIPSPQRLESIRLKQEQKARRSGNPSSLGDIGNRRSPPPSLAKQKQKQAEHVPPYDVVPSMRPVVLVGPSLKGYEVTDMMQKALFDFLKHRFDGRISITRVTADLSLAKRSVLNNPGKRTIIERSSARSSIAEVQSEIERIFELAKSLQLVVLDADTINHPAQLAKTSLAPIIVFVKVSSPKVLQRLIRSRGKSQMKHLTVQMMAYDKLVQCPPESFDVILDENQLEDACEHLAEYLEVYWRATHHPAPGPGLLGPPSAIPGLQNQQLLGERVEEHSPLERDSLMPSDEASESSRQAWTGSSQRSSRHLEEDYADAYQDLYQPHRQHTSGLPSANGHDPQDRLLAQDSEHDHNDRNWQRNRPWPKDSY
T3 sequence (O08532 25-956 partner limits assumed): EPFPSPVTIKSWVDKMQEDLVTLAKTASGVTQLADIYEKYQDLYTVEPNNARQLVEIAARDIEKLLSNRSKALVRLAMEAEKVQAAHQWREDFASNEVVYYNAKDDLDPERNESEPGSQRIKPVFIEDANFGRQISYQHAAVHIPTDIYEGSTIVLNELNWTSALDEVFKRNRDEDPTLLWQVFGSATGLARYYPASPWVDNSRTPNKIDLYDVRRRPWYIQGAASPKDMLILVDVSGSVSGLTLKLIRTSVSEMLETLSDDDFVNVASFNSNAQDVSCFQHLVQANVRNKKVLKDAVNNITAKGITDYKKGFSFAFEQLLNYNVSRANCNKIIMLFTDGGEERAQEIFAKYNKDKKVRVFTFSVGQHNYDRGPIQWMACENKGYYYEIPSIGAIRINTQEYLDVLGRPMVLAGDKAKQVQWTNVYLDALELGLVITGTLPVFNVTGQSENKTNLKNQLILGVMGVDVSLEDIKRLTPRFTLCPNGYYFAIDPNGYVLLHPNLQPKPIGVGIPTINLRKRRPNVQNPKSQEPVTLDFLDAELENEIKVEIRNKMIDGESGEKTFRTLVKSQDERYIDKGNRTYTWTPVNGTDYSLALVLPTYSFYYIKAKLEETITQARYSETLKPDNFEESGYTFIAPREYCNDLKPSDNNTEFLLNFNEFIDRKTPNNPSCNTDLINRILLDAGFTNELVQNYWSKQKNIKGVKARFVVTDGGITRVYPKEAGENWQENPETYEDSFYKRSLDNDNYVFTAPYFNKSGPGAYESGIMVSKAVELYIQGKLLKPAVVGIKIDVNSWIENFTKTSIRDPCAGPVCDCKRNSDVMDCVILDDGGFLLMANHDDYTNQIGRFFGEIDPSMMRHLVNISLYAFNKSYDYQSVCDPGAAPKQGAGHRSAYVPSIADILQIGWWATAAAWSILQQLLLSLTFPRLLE
T3 sequence (O08532 957-1103 partner limits assumed): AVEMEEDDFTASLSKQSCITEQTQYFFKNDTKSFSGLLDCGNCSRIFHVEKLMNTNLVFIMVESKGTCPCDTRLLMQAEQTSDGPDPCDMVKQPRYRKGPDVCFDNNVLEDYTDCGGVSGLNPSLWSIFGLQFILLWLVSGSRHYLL
T2 sequence (Q01815 whole entry): as the sequence (Q01815 whole entry) above
T2 sequence (P54285 whole entry partner): as the sequence (P54285 whole entry partner) above
T2 sequence (O08532 25-956 partner limits assumed): as the sequence (O08532 25-956 partner limits assumed) above
T2 sequence (O08532 957-1103 partner limits assumed): as the sequence (O08532 957-1103 partner limits assumed) above

For CC(C)=CCC/C(C)=C/COc1cccc(O)c1 [Geranylresorcinol, (E)-3-(3,7-dimethylocta-2,6-dienyloxy)phenol], the “Predicted anti-seizure activity: long-acting (la)” value [1] was “la”, the “activity on neuronal L-type Ca^2+ channels compared with all-trans farnesol” value [2] was “strongly inhibits” and the “reversibility of effect compared with farnesol” value (L-type Ca^2+ channel) was “less reversible”. For the same compound, the “activity on KCl-induced arterial contraction” value [3] was “strongly inhibits”, the “recognition by microsomal FolDH” value (microsomal FolDH) was “not recognized by microsomal FolDH” and the “substrate for ADH” value (ADH) was “very poor substrate for ADH”. The storage stability (Storage stability) was “stable”.

Reference: patent US10201510B2, “Compositions and methods for treatment of neurological symptoms associated with alcohol-withdrawal and for convulsive seizure” (Oregon Health & Science University, priority 2005, dated 2019)
